In general, viability refers to a read-out of living cells in per cent, often relative to untreated cells.

The data set in a line: in vitro. Particulars: human, hela cells, % viability.
With `O=C(CC1CCCO1)N1CCn2c(nnc2-c2cncc(Br)c2)C1` (stereo not drawn) [CBK304762], the viability at 28.5 h, 10 µM amounted to 91.4%. Turning to `CCOCCCC(=O)N1CCn2c(nnc2-c2cncc(Br)c2)C1` [CBK304764], the viability at 28.5 h, 10 µM was determined as 91.5%. As for `CNS(=O)(=O)c1ccc(C(C)NC(=O)N2CCN3CCC2CC3)cc1` (stereo not drawn) [CBK304765], the figure is 92.2%.

On to `N#Cc1ccc(CN2CCC(NC3CCCn4nccc43)C2=O)cc1` (stereo not drawn) [CBK304770], for which the viability at 28.5 h, 10 µM was 97.8%. As for `Cc1conc1C(=O)N1CCCCC1CN1CCOCC1` (stereo not drawn) [CBK304771], the figure is 92.7%; as for `CC1CN(c2cc(CO)c(F)cn2)CC2(CCOCC2)O1` (stereo not drawn) [CBK304773], 91.9%; as for `CC1OCCC12CN(c1cc(CO)c(F)cn1)CCO2` (stereo not drawn) [CBK304775], 102%. As for `Cn1ncc2ccc(-c3nnn[nH]3)cc21` [CBK304776], the figure is 93%. `Cc1cc(N2CCN(C(=O)CCc3nccs3)CC2)nc(C(C)C)n1` [CBK304778]: the viability at 28.5 h, 10 µM came to 98.8%. As for `Cc1nc(C(C)NC(=O)c2cc(C3CC3)nc3c2c(C)nn3C)cs1` (stereo not drawn) [CBK304779], the figure is 93.7%; as for `COCC(=O)N(C)C(CO)c1cc(OC)ccc1Br` (stereo not drawn) [CBK304780], 88.7%; as for `Cn1c(CN2CCN(c3ccc(C#N)cn3)CC2)nnc1C1CC1` [CBK304781], 92.5%. As for `CC(CN(C)C(=O)c1cn[nH]c1C1CCNC1)Oc1ccc(Cl)c(Cl)c1` (stereo not drawn) [CBK304786], the figure is 91.1%; as for `Cc1nc(C)n(CC2CCCN(Cc3cc(C#N)cs3)C2)n1` (stereo not drawn) [CBK304787], 92%. As for `CCn1c(=O)n(CC2(O)CCCOC2)c2cc(S(=O)(=O)N(C)C)ccc21` (stereo not drawn) [CBK304788], the figure is 90.6%; as for `CN(C)c1ncccc1OC1CCN(c2nnc(C(F)(F)F)s2)C1` (stereo not drawn) [CBK304789], 97.1%; as for `CCn1cc(S(=O)(=O)NC2CCc3[nH]c4ccc(C)cc4c3C2)cn1` (stereo not drawn) [CBK304790], 99.7%.

As for `Fc1cc(Br)c(CNCc2cocn2)c(N2CCCCC2)c1F` [CBK304792], the viability at 28.5 h, 10 µM came out at 86.8%. With `CCc1csc(C2CN3CCCC3CO2)n1` (stereo not drawn) [CBK304793] the figure was 89.4%; with `COCCNS(=O)(=O)c1ccc(Br)c(C(=O)N(C)Cc2cnn(C)c2)c1` [CBK304795], 96.6%; with `CCN(CC(C)C#N)C(=O)c1ccc2ccccc2n1` (stereo not drawn) [CBK304801], 96.6%. As for `CCCOC1CCCN(C(=O)c2cc(Cl)c[nH]2)C1` (stereo not drawn) [CBK304802], the figure is 97.5%. With `CCC(CNC(=O)c1cccc(C)n1)N1CCCC1` (stereo not drawn) [CBK304803] the figure was 116%; with `Cc1csc(CNCc2c(C)nn(C)c2N(C)C)n1` [CBK304804], 103%; with `CCC(C)c1csc(C2CN3CCCC3CO2)n1` (stereo not drawn) [CBK304805], 81.5%. Take `CC(C)Cc1csc(C2CN3CCCC3CO2)n1` (stereo not drawn) [CBK304807]: the viability at 28.5 h, 10 µM was 83.9%. For `Cc1nc(CNCc2c(C)nn(C)c2N(C)C)cs1` [CBK304808], the viability at 28.5 h, 10 µM came to 95.3%.

As for `CCN1CCOC(CNc2ncnc3c2CCC3)C1` (stereo not drawn) [CBK304811], the viability at 28.5 h, 10 µM is 106%.

Take `c1ccc(C(NCc2cncs2)C2CCCC2)cc1` (stereo not drawn) [CBK304812]: the viability at 28.5 h, 10 µM worked out at 82.6%.

`c1sc(C2CN3CCCC3CO2)nc1C1CCCC1` (stereo not drawn) [CBK304814]: the viability at 28.5 h, 10 µM was 90.4%. As for `COc1ccnc(N2CCc3c(ncn3C3CC3)C2)n1` [CBK304816], the figure is 95.7%; as for `COCCNC(=O)N1CCN(Cc2ccccn2)CC1` [CBK304817], 110%; as for `COCC1CCCN(Cc2cn(C)nc2C(C)(C)C)C1` (stereo not drawn) [CBK304818], 108%. With `Cc1occc1-c1nnc(NCc2cnn(C)c2C)o1` [CBK304819] the figure was 92.3%; with `CC(C)C(CNCc1ccsc1)c1ccnn1C` (stereo not drawn) [CBK304821], 93.9%. With `CC(C)C(CNCc1ccn(C)c1)c1ccnn1C` (stereo not drawn) [CBK304822] the figure was 91%; with `CCSC1CCC(N(C)CC(=O)NCc2ccco2)C1` (stereo not drawn) [CBK304823], 84.3%. As for `CCC(=O)N(C)C1CCN(c2ncnc3ccccc23)CC1` [CBK304829], the viability at 28.5 h, 10 µM was 91.8%. As for `CN1CCOC(CNCc2ccc(OCC(N)=O)cc2)C1` (stereo not drawn) [CBK304830], the figure is 102%; as for `Cc1cc(C)n(CC(C)CNC(=O)CCCN(C)C)n1` (stereo not drawn) [CBK304831], 93%. Regarding `CCOC(=O)C1(O)CCN(c2ccc(C#N)cc2F)CC1` [CBK304836], the viability at 28.5 h, 10 µM amounted to 94%.

For `CCCCn1nccc1NC(=O)NC(C)c1ccncc1` (stereo not drawn) [CBK304840], the viability at 28.5 h, 10 µM was 99.2%.

As for `CCCc1n[nH]c(C2CN(CCn3cccn3)CCO2)n1` (stereo not drawn) [CBK304842], the viability at 28.5 h, 10 µM came out at 106%. With `Cc1noc(C)c1CN1CC2CCN(c3ccccc3)C2C1` (stereo not drawn) [CBK304847] the figure was 99.7%; with `CCOC(=O)C1CCCN(Cc2nnsc2Cl)C1` (stereo not drawn) [CBK304848], 95.7%; with `Cn1cc(C2CCCN2C(=O)c2cccc(C#N)c2)cn1` (stereo not drawn) [CBK304849], 98%. As for `COCCOC1CN(Cc2cn(-c3ccc(Br)cc3)nc2C(C)C)C1` [CBK304852], the figure is 87.7%. For the compound `CC1CCC(C(N)=O)CN1c1cc(Br)ccn1` (stereo not drawn) [CBK304856], the viability at 28.5 h, 10 µM was found to be 94.9%. As for `CN(Cc1ccco1)C(=O)c1cccc(NC(=O)C2CC2)c1` [CBK304857], the viability at 28.5 h, 10 µM was 101%.

For the compound `COc1cccc(CNCC(c2ccnn2C)C(C)C)n1` (stereo not drawn) [CBK304858], the viability at 28.5 h, 10 µM was determined as 105%. With `COc1cccc(CC(=O)N(CCC#N)Cc2ccco2)c1` [CBK304859], the viability at 28.5 h, 10 µM worked out at 92.5%. As for `O=C(Nc1cccc(F)c1)N(CCO)Cc1cccnc1` [CBK304860], the figure is 104%. As for `CCCn1ccc(CNCC(c2ccnn2C)C(C)C)c1` (stereo not drawn) [CBK304861], the figure is 87%; as for `COc1ccc(C(=O)N(CCC#N)Cc2ccco2)cc1` [CBK304862], 93.5%. With `CCCn1cc(NC(=O)NC(C)(CC)CO)ccc1=O` (stereo not drawn) [CBK304864] the figure was 88.7%; with `O=C(c1ccc2[nH]ccc2c1)N1CCN(CC2CCOC2)CC1` (stereo not drawn) [CBK304866], 111%.

With `CN(C)C(=O)c1cccc(S(=O)(=O)NCC2CCCO2)c1` (stereo not drawn) [CBK304867], the viability at 28.5 h, 10 µM amounted to 93.2%. As for `COC(=O)c1cccc2c1CCCN2Cc1nnc(C2CC2)o1` [CBK304868], the figure is 90.2%; as for `CC(Sc1nncs1)C(=O)N1CCCc2ccccc21` (stereo not drawn) [CBK304871], 94.6%. As for `Cc1ccccc1OCC(O)CN1CCCC(C(F)(F)F)C1` (stereo not drawn) [CBK304873], the figure is 103%. In the case of `CC(=O)Nc1cccc(NCc2csc(C3CCCC3)n2)c1` [CBK304874], the viability at 28.5 h, 10 µM was found to be 110%. As for `COc1ccc(CNC2CCCc3c2cnn3C)c(OC)c1` (stereo not drawn) [CBK304875], the figure is 103%; as for `COC(=O)c1cccn2cc(CN3CCOCC3(C)C)nc12` [CBK304879], 93.8%.

As to `CCN(Cc1cn2cccc(C(=O)OC)c2n1)CC1CCOC1` (stereo not drawn) [CBK304880], the viability at 28.5 h, 10 µM worked out at 96.6%. With `COC1CCN(C2CCc3c(Cl)cc(Cl)cc32)CC1` (stereo not drawn) [CBK304883] the figure was 90.6%; with `COCCNC(=O)c1nn(-c2cccc(C(C)C)c2)cc1O` [CBK304884], 90.8%. As for `Cc1ccc(S(=O)(=O)N(CCO)CC2CC2)c(Cl)c1` [CBK304885], the figure is 75%; as for `COCCOCCCC(=O)OCC1Cc2cc(F)ccc2O1` (stereo not drawn) [CBK304886], 91.2%.

Consider `Cc1cccc(OCC(C)NC(=O)NCCc2cnn(C)c2)c1` (stereo not drawn) [CBK304887], for which the viability at 28.5 h, 10 µM amounted to 98.5%. As for `CS(=O)(=O)NC1CCCN(Cc2nc(N)c3ccccc3n2)C1` (stereo not drawn) [CBK304889], the figure is 93.8%; as for `CC(C)Cn1ncc2cc(C(=O)Nc3cccnc3N(C)C)cnc21` [CBK304891], 87.1%. As for `CCn1c(=O)n(CC(C)(C)O)c2cc(S(=O)(=O)N(C)C)ccc21` [CBK304893], the figure is 92.8%.

For `COc1ccnc(N2CCN(C(=O)c3cncnc3C)CC2)n1` [CBK304894], the viability at 28.5 h, 10 µM was found to be 104%. As for `Cc1nc2ccccc2c(C)c1CC(=O)N(C)Cc1cnn(C)c1` [CBK304895], the viability at 28.5 h, 10 µM turned out to be 96.1%.

Regarding `CC(=O)N1CCN(CCNc2ncnc3sc4c(c23)CCC(C)C4)CC1` (stereo not drawn) [CBK304897], the viability at 28.5 h, 10 µM was 93%. Regarding `COc1ccnc(N2CCN(C(=O)c3cnn(C)c3C3CC3)CC2)n1` [CBK304900], the viability at 28.5 h, 10 µM worked out at 85.3%.

As to `COC(=O)c1ccc(N2CCN(Cc3nc(C)c(C)o3)C(C)C2)cc1` (stereo not drawn) [CBK304903], the viability at 28.5 h, 10 µM stood at 105%. With `O=C(Nc1ncn(CC(=O)N2CCCCCC2)n1)c1cccc(F)c1` [CBK304904] the figure was 87.5%; with `Cc1nc(-c2cccnc2)[nH]c(=O)c1CC(=O)N(C)C1CCCC1` [CBK304907], 83%; with `Cc1cc(NC(=O)CCN2CCC(N3CCNC3=O)CC2)no1` [CBK304909], 89.9%. On to `N#CC1(NC(=O)CN2CCOC(Cn3cccn3)C2)CCCC1` (stereo not drawn) [CBK304911], for which the viability at 28.5 h, 10 µM was found to be 95.8%.

`O=C1CCC(C(=O)N2CC3(CCCC3)c3c(F)cccc32)CN1` (stereo not drawn) [CBK304914]: the viability at 28.5 h, 10 µM was 85.7%. As for `Cc1cccc(OCC(=O)Nc2ncn(Cc3cccnc3)n2)c1` [CBK304919], the figure is 95.9%; as for `Cn1cc(CN2CCCN(C(=O)c3cc4ccccc4[nH]3)CC2)cn1` [CBK304920], 96%. As for `CCN(CC(C)C#N)C(=O)c1nn(-c2ccccc2)c(C)cc1=O` (stereo not drawn) [CBK304925], the figure is 109%; as for `CC(NS(=O)(=O)Cc1ccccc1Cl)C(=O)N1CCCCC1` (stereo not drawn) [CBK304928], 93.7%; as for `Cc1nc(CN2CCCC(NCc3cccc(C(N)=O)c3)C2)no1` (stereo not drawn) [CBK304929], 94.2%.
